Results on 15 compounds are retold here after patent publication EP4159721A1, “CONDENSED 3,3-DIFLUORO-PIPERIDINE DERIVATIVES AS INHIBITORS OF CORONAVIRUSES 3-CHYMOTRYPSIN-LIKE PROTEASE” (Qubit Pharmaceuticals, priority 2021, dated 2023).

The pIC50 is the negative decadic logarithm of the IC50, by convention in mol/L.

pIC50: −log10 of the molar value.

The target in the first experiment is T1, SARS-CoV-2 3CLpro (Severe acute respiratory syndrome coronavirus 2, UniProt P0DTD1). Kind of experiment: Binding studies by Mass Spectrometry (ESI-MS, denaturing conditions). Particulars: 10 µM 3CLpro, 1:1 or 10:1 compound:protein, 20 min at room temperature.
`CSc1cc2c(cn1)C(=O)C(F)(F)C(=O)N2` [Compound 13, 3,3-difluoro-7-(methylsulfanyl)-1,2,3,4-tetrahydro-1,6-naphthyridine-2,4-dione]: the Covalent binding result was “Covalent binding is confirmed”.
`CSc1ccc2c(c1)NC(=O)C(F)(F)C2=O` [Compound 14, 3,3-difluoro-7-(methylsulfanyl)-1,2,3,4-tetrahydroquinoline-2,4-dione]: the Covalent binding result is “Covalent binding is confirmed”.

A further experiment addresses T1, SARS-CoV-2 3CLpro. Kind of experiment: Binding assessment by Nuclear Magnetic Resonance (WaterLOGSY and STD). As to conditions: NMR (WaterLOGSY, STD); 10 µM of 3CLpro, ligand 100 µM to 2 mM, pH=7.3. More on the design: key: +++: strong binder; ++: binder; +/-: not to very low binder.
For the compound `CSc1ccc2c(c1)NCC(F)(F)C2C` (single isomer, unassigned) [Compound 11 or 12, 3,3-difluoro-4-methyl-7-(methylsulfanyl)-1,2,3,4-tetrahydroquinoline], the “Binding Activity” value is given as “++”.
Turning to `CSc1cc2c(cn1)C(O)C(F)(F)C(=O)N2` (single isomer, unassigned) [Compound 7 or 8, 3,3-difluoro-4-hydroxy-7-(methylsulfanyl)-1,2,3,4-tetrahydro-1,6-naphthyridin-2-one], the “Binding Activity” value is recorded as “++”.
For `CSc1ccc2c(c1)NC(=O)C(F)(F)C2(C)O` (centres unmarked) [reference compound], the “Binding Activity” value is “+/-”.
Take `CSc1ccc2c(c1)NCC(F)(F)C2O` (single isomer, unassigned) [Compound 1 or 2, 3,3-difluoro-7-(methylsulfanyl)-1,2,3,4-tetrahydroquinolin-4-ol]: the “Binding Activity” value is reported as “++”.
The same measure, in the same setting: next, `CSc1ccc2c(c1)NC(=O)C(F)(F)C2O` (single isomer, unassigned) [Compound 5 or 6, 3,3-difluoro-4-hydroxy-7-(methylsulfanyl)-1,2,3,4-tetrahydroquinolin-2-one]: “+++”; `Cc1nn(C)c2c1C(O)C(F)(F)C(=O)N2` (single isomer, unassigned) [Compound 19 or 20, 5,5-difluoro-4-hydroxy-1,3-dimethyl-1H,4H,5H,6H,7H-pyrazolo[3,4-b]pyridin-6-one]: “++”.
Regarding `CSc1ccc2c(c1)NC(=O)C(F)(F)C2C` (single isomer, unassigned) [Compound 9 or 10, 3,3-difluoro-4-methyl-7-(methylsulfanyl)-1,2,3,4-tetrahydroquinolin-2-one], the “Binding Activity” value is on record as “+++”.
As to `CSc1ccc2c(c1)NC(=O)CC2C` (centres unmarked) [reference compound], the “Binding Activity” value is reported as “+/-”.
Still for that read-out and setting: with `CSc1ccc2c(c1)NC(=O)CC2=O` [reference compound] the entry was “+/-”.
Same read-out and setting: with `CSc1cc(F)c2c(c1)NC(=O)C(F)(F)C2O` (single isomer, unassigned) [Compound 17 or 18] the entry was “++”; with `O=C1Nc2ccccc2C(O)C1(F)F` (centres unmarked) [reference compound], “+/-”.
With `O=C1Nc2cc(SC3CC3)ccc2C(O)C1(F)F` (single isomer, unassigned) [Compound 15 or 16], the “Binding Activity” value was “++”.
Turning to `CSc1cc2c(cn1)C(O)C(F)(F)CN2` (single isomer, unassigned) [Compound 3 or 4, 3,3-difluoro-7-(methylsulfanyl)-1,2,3,4-tetrahydro-1,6-naphthyridin-4-ol], the “Binding Activity” value is on record as “+++”.

In a further experiment the target is T1, SARS-CoV-2 3CLpro. Kind of experiment: FRET-based assay of 3CLpro inhibitory activity. The class given is biochemical.
Settings: not given
For the compound `CSc1cc2c(cn1)C(=O)C(F)(F)C(=O)N2` [Compound 13, 3,3-difluoro-7-(methylsulfanyl)-1,2,3,4-tetrahydro-1,6-naphthyridine-2,4-dione], the negative logarithm of the IC50 (pIC50) is 5.64.

Staying with this experiment, now noted: 0.02 µM 3CLpro, 5 µM peptide substrate, 20 minutes incubation at room temperature; triplicate, average and standard deviation; read-out: IC50.
Take `CSc1ccc2c(c1)NC(=O)C(F)(F)C2=O` [Compound 14, 3,3-difluoro-7-(methylsulfanyl)-1,2,3,4-tetrahydroquinoline-2,4-dione]: the negative logarithm of the IC50 (pIC50) was 6.08.
